ChEMBL document CHEMBL4507297, “Data for DCP probe PF-04457845” (2021)

Legend:
[1] = biological target: Rho-associated protein kinase 2 (Homo sapiens) (UniProt O75116); settings: Compound concentration 1000.0 nM
[2] = biological target: Ribosomal protein S6 kinase beta-1 (Homo sapiens) (UniProt P23443); settings: Compound concentration 1000.0 nM
[3] = biological target: Receptor-interacting serine/threonine-protein kinase 4 (Homo sapiens) (UniProt P57078); settings: Compound concentration 1000.0 nM
[4] = biological target: Serine/threonine-protein kinase PLK2 (Homo sapiens) (UniProt Q9NYY3); settings: Compound concentration 1000.0 nM
[5] = biological target: Cyclin-dependent kinase 7 (Homo sapiens) (UniProt P50613); settings: Compound concentration 1000.0 nM
[6] = tested on: Serine/threonine-protein kinase B-raf (Homo sapiens), P15056 [V600E]; settings: Compound concentration 1000.0 nM
[7] = biological target: Mitogen-activated protein kinase kinase kinase 19 (Homo sapiens) (UniProt Q56UN5); settings: Compound concentration 1000.0 nM
[8] = biological target: Membrane-associated tyrosine- and threonine-specific cdc2-inhibitory kinase (Homo sapiens) (UniProt Q99640); settings: Compound concentration 1000.0 nM
[9] = tested on: Phosphatidylinositol 4,5-bisphosphate 3-kinase catalytic subunit alpha isoform (Homo sapiens), P42336 [H1047Y]; settings: Compound concentration 1000.0 nM
[10] = biological target: Dual specificity protein kinase CLK1 (Homo sapiens) (UniProt P49759); settings: Compound concentration 1000.0 nM
[11] = biological target: SNF-related serine/threonine-protein kinase (Homo sapiens) (UniProt Q9NRH2); settings: Compound concentration 1000.0 nM
[12] = biological target: Myosin light chain kinase (Homo sapiens) (UniProt Q32MK0); settings: Compound concentration 1000.0 nM
[13] = biological target: Maternal embryonic leucine zipper kinase (Homo sapiens) (UniProt Q14680); settings: Compound concentration 1000.0 nM
[14] = biological target: 5-hydroxytryptamine receptor 6 (Homo sapiens) (UniProt P50406); settings: Compound concentration 10.0 uM
[15] = biological target: ALK tyrosine kinase receptor (Homo sapiens) (UniProt Q9UM73); settings: Compound concentration 1000.0 nM
[16] = tested on: Receptor-type tyrosine-protein kinase FLT3 (Homo sapiens), P36888 [D835V]; settings: Compound concentration 1000.0 nM
[17] = biological target: Serine/threonine-protein kinase OSR1 (Homo sapiens) (UniProt O95747); settings: Compound concentration 1000.0 nM
[18] = tested on: Receptor-type tyrosine-protein kinase FLT3 (Homo sapiens), P36888 [UNDEFINED MUTATION]; settings: Compound concentration 1000.0 nM
[19] = biological target: Phosphatidylinositol 4-phosphate 3-kinase C2 domain-containing subunit beta (Homo sapiens) (UniProt O00750); settings: Compound concentration 1000.0 nM
[20] = biological target: Tyrosine-protein kinase Srms (Homo sapiens) (UniProt Q9H3Y6); settings: Compound concentration 1000.0 nM
[21] = biological target: Muscarinic acetylcholine receptor M3 (Homo sapiens) (UniProt P20309); settings: Compound concentration 10.0 uM
[22] = tested on: Tyrosine-protein kinase ABL1 (Homo sapiens), P00519 [E255K]; settings: Compound concentration 1000.0 nM
[23] = biological target: Protein kinase C epsilon type (Homo sapiens) (UniProt Q02156); settings: Compound concentration 1000.0 nM
[24] = biological target: Serine/threonine-protein kinase MARK2 (Homo sapiens) (UniProt Q7KZI7); settings: Compound concentration 1000.0 nM
[25] = biological target: Ephrin type-A receptor 3 (Homo sapiens) (UniProt P29320); settings: Compound concentration 1000.0 nM
[26] = biological target: Fibroblast growth factor receptor 3 (Homo sapiens) (UniProt P22607); settings: Compound concentration 1000.0 nM
[27] = biological target: Phosphatidylinositol 4,5-bisphosphate 3-kinase catalytic subunit beta isoform (Homo sapiens) (UniProt P42338); settings: Compound concentration 1000.0 nM
[28] = biological target: Serine/threonine-protein kinase haspin (Homo sapiens) (UniProt Q8TF76); settings: Compound concentration 1000.0 nM
[29] = biological target: Serine/threonine-protein kinase PLK4 (Homo sapiens) (UniProt O00444); settings: Compound concentration 1000.0 nM
[30] = biological target: Dual specificity mitogen-activated protein kinase kinase 7 (Homo sapiens) (UniProt O14733); settings: Compound concentration 1000.0 nM
[31] = biological target: Serine/threonine-protein kinase MARK1 (Homo sapiens) (UniProt Q9P0L2); settings: Compound concentration 1000.0 nM
[32] = biological target: Sigma intracellular receptor 2 (Homo sapiens, UniProt Q5BJF2); settings: Compound concentration 10.0 uM
[33] = biological target: Hormonally up-regulated neu tumor-associated kinase (Homo sapiens) (UniProt P57058); settings: Compound concentration 1000.0 nM
[34] = biological target: Aurora kinase A (Homo sapiens) (UniProt O14965); settings: Compound concentration 1000.0 nM
[35] = biological target: Phosphatidylinositol 3-kinase C2 domain-containing subunit gamma (Homo sapiens) (UniProt O75747); settings: Compound concentration 1000.0 nM
[36] = biological target: Serine/threonine-protein kinase 26 (Homo sapiens) (UniProt Q9P289); settings: Compound concentration 1000.0 nM
[37] = biological target: Fibroblast growth factor receptor 1 (Homo sapiens) (UniProt P11362); settings: Compound concentration 1000.0 nM
[38] = biological target: 5-hydroxytryptamine receptor 1E (Homo sapiens) (UniProt P28566); settings: Compound concentration 10.0 uM
[39] = biological target: Calcium/calmodulin-dependent protein kinase type IV (Homo sapiens) (UniProt Q16566); settings: Compound concentration 1000.0 nM
[40] = biological target: Tyrosine-protein kinase Lyn (Homo sapiens) (UniProt P07948); settings: Compound concentration 1000.0 nM
[41] = tested on: Tyrosine-protein kinase ABL1 (Homo sapiens), P00519 [Q252H]; settings: Compound concentration 1000.0 nM
[42] = biological target: Death-associated protein kinase 1 (Homo sapiens) (UniProt P53355); settings: Compound concentration 1000.0 nM
[43] = tested on: Tyrosine-protein kinase ABL1 (Homo sapiens), P00519 [M351T]; settings: Compound concentration 1000.0 nM
[44] = biological target: Atypical kinase COQ8B, mitochondrial (Homo sapiens) (UniProt Q96D53); settings: Compound concentration 1000.0 nM
[45] = biological target: Ribosomal protein S6 kinase alpha-4 (Homo sapiens) (UniProt O75676); settings: Compound concentration 1000.0 nM

Chain of SNF-related serine/threonine-protein kinase (Homo sapiens) (Q9NRH2 whole entry): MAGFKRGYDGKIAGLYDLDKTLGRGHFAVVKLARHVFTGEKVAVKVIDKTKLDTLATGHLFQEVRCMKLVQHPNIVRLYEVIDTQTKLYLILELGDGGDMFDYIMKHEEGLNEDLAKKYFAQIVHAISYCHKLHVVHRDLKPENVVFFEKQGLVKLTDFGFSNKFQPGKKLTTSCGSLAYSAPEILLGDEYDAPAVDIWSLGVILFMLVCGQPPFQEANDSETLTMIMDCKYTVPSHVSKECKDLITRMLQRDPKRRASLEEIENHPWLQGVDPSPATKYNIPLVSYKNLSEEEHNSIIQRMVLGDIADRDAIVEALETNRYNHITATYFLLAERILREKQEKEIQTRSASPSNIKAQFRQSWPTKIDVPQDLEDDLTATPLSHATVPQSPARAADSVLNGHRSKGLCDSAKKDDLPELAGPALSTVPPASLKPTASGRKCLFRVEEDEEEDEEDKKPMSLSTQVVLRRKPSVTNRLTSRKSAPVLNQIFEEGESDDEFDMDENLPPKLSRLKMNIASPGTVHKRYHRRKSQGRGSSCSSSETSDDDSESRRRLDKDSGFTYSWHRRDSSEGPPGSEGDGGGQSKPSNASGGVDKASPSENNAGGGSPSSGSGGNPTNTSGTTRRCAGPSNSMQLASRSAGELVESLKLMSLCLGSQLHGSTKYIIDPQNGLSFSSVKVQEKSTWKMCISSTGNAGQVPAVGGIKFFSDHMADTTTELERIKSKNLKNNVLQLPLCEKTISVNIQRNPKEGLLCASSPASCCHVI
Chain of Ephrin type-A receptor 3 (Homo sapiens) (P29320 whole entry): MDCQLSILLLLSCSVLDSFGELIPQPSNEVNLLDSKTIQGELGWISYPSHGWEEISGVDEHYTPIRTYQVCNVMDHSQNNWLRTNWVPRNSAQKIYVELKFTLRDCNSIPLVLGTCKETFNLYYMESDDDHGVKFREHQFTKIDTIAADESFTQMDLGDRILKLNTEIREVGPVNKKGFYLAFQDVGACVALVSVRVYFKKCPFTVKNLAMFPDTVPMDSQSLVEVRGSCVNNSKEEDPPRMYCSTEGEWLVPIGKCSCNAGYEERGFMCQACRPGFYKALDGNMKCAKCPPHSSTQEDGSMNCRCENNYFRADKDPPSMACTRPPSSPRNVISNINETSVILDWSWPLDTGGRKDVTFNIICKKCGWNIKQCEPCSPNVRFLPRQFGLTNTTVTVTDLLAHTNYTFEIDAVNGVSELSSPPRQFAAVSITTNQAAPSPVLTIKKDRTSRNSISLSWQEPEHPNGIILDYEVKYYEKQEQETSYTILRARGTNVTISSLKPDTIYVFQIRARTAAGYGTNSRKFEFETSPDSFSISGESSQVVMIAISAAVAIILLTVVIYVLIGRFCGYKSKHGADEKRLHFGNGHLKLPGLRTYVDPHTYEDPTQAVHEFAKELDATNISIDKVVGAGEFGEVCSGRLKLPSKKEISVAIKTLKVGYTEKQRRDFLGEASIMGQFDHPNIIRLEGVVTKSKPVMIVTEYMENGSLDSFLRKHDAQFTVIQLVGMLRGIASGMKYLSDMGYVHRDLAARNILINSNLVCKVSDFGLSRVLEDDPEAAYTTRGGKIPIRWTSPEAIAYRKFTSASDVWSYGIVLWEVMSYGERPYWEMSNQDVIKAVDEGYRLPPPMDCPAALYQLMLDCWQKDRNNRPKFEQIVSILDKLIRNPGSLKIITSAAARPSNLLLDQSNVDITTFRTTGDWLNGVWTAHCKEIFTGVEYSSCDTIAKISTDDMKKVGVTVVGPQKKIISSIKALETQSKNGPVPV
Chain of Calcium/calmodulin-dependent protein kinase type IV (Homo sapiens) (Q16566 whole entry): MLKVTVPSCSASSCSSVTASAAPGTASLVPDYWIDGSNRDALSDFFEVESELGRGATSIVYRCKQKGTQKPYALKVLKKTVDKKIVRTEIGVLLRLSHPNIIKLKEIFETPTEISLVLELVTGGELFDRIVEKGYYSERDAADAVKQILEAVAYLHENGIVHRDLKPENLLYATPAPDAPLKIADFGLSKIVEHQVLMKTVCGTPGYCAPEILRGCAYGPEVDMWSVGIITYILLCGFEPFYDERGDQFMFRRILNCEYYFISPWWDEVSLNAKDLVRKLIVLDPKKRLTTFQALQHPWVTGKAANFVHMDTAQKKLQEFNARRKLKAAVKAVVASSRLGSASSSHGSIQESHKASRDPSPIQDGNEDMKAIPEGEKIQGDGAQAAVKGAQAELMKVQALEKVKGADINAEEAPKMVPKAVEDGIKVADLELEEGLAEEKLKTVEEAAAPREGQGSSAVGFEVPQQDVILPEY
Chain of Fibroblast growth factor receptor 3 (Homo sapiens) (P22607 23-806 limits assumed): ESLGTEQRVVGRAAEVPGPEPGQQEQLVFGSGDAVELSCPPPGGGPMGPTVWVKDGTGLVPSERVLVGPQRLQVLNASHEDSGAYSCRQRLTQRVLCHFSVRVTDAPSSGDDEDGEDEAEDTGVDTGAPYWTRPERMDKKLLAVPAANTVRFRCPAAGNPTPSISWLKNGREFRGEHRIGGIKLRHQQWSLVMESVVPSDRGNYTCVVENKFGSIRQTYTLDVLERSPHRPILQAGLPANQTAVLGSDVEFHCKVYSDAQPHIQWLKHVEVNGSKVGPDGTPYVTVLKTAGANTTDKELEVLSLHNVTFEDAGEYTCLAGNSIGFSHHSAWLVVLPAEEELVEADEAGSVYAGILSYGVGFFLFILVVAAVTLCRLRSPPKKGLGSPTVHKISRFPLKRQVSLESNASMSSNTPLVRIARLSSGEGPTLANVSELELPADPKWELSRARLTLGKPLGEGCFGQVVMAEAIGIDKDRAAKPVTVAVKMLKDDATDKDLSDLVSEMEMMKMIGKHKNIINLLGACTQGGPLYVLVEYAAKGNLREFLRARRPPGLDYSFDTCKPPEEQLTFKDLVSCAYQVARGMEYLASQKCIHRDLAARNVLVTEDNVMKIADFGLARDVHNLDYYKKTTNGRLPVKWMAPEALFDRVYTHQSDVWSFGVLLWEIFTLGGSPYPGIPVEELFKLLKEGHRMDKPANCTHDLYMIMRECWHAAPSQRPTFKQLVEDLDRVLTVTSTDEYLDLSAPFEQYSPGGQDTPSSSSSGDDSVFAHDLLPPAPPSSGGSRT
Chain of Membrane-associated tyrosine- and threonine-specific cdc2-inhibitory kinase (Homo sapiens) (Q99640 whole entry, canonical isoform): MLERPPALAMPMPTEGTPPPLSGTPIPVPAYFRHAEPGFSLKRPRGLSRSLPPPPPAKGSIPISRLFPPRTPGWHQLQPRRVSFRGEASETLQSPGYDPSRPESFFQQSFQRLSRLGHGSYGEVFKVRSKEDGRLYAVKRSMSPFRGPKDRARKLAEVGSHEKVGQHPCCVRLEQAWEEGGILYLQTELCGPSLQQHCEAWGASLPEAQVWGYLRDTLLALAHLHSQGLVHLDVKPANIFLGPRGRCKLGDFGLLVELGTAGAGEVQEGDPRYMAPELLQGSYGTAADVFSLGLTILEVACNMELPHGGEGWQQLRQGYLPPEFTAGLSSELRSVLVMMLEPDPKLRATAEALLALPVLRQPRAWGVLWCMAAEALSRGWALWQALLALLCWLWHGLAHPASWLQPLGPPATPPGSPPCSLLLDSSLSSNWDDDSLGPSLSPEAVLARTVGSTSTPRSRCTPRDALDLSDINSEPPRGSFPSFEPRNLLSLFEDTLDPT
Chain of Receptor-interacting serine/threonine-protein kinase 4 (Homo sapiens) (P57078 whole entry): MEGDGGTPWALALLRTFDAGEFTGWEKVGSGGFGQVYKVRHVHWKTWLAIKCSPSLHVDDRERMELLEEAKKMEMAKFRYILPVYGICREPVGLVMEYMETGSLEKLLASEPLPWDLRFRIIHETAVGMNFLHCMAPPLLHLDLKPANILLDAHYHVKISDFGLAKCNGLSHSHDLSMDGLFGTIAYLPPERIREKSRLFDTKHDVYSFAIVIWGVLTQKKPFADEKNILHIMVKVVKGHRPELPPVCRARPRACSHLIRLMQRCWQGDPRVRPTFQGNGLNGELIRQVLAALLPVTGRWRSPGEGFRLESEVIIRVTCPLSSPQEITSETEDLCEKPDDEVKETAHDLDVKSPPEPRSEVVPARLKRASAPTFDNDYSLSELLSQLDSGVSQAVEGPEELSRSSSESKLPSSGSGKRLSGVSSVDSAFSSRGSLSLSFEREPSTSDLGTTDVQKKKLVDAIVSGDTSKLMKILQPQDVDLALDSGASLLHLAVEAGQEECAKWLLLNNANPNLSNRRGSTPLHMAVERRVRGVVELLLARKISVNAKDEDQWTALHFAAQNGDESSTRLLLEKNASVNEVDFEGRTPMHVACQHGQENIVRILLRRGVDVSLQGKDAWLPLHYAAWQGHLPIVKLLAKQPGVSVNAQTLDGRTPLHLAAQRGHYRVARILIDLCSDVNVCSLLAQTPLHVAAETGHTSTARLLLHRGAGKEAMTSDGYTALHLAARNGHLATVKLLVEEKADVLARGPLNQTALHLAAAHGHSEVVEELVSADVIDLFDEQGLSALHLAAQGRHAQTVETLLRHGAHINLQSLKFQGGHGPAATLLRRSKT
Chain of Sigma intracellular receptor 2 (Q5BJF2 whole entry): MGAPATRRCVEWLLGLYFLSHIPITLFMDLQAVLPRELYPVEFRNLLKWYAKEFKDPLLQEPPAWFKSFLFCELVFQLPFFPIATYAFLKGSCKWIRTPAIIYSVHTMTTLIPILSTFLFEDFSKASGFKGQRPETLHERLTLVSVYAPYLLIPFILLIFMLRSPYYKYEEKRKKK
Chain of 5-hydroxytryptamine receptor 6 (Homo sapiens) (P50406 whole entry): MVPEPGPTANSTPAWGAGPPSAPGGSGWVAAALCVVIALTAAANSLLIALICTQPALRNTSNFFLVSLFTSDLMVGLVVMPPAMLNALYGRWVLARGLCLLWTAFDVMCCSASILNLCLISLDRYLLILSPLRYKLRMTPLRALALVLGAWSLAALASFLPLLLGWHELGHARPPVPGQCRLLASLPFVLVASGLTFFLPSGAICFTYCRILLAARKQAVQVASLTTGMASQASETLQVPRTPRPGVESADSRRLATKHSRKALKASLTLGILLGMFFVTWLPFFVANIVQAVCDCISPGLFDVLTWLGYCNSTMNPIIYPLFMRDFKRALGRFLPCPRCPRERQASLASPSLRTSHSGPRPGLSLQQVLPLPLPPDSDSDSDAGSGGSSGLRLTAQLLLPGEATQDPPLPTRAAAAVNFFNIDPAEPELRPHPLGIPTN

## O=C(Nc1cccnn1)N1CCC(=Cc2cccc(Oc3ccc(C(F)(F)F)cn3)c2)CC1
[1]
  residual activity: 100%
[2]
  residual activity: 100%
[3]
  residual activity: 100%
[4]
  residual activity: 100%
[5]
  residual activity: 100%
[6]
  residual activity: 100%
[7]
  residual activity: 85%
[8]
  residual activity: 100%
[9]
  residual activity: 82%
[10]
  residual activity: 95%
[11]
  residual activity: 100%
[12]
  residual activity: 100%
[13]
  residual activity: 100%
[14]
  inhibition: 40.6%
[15]
  residual activity: 100%
[16]
  residual activity: 100%
[17]
  residual activity: 100%
[18]
  residual activity: 100%
[19]
  residual activity: 91%
[20]
  residual activity: 95%
[21]
  inhibition: 27.5%
[22]
  residual activity: 85%
[23]
  residual activity: 82%
[24]
  residual activity: 100%
[25]
  residual activity: 100%
[26]
  residual activity: 83%
[27]
  residual activity: 100%
[28]
  residual activity: 100%
[29]
  residual activity: 100%
[30]
  residual activity: 100%
[31]
  residual activity: 84%
[32]
  inhibition: 91.3%
[33]
  residual activity: 87%
[34]
  residual activity: 100%
[35]
  residual activity: 95%
[36]
  residual activity: 100%
[37]
  residual activity: 100%
[38]
  inhibition: 19%
[39]
  residual activity: 63%
[40]
  residual activity: 100%
[41]
  residual activity: 75%
[42]
  residual activity: 100%
[43]
  residual activity: 99%
[44]
  residual activity: 81%
[45]
  residual activity: 100%

## O=C(Nc1cccnn1)N1CC(C/C=C/c2cncc(Oc3ccc(C(F)(F)F)cn3)n2)C1
[1]
  residual activity: 90%
[2]
  residual activity: 71%
[3]
  residual activity: 74%
[4]
  residual activity: 60%
[5]
  residual activity: 81%
[6]
  residual activity: 85%
[7]
  residual activity: 90%
[8]
  residual activity: 100%
[9]
  residual activity: 100%
[10]
  residual activity: 100%
[11]
  residual activity: 100%
[12]
  residual activity: 85%
[13]
  residual activity: 100%
[14]
  inhibition: 7.76%
[15]
  residual activity: 97%
[16]
  residual activity: 77%
[17]
  residual activity: 71%
[18]
  residual activity: 76%
[19]
  residual activity: 93%
[20]
  residual activity: 67%
[21]
  inhibition: 0.26%
[22]
  residual activity: 81%
[23]
  residual activity: 100%
[24]
  residual activity: 80%
[25]
  residual activity: 95%
[26]
  residual activity: 97%
[27]
  residual activity: 79%
[28]
  residual activity: 79%
[29]
  residual activity: 98%
[30]
  residual activity: 91%
[31]
  residual activity: 100%
[32]
  inhibition: 69%
[33]
  residual activity: 89%
[34]
  residual activity: 100%
[35]
  residual activity: 100%
[36]
  residual activity: 71%
[37]
  residual activity: 100%
[38]
  inhibition: 0.84%
[39]
  residual activity: 100%
[40]
  residual activity: 97%
[41]
  residual activity: 100%
[42]
  residual activity: 98%
[43]
  residual activity: 67%
[44]
  residual activity: 94%
[45]
  residual activity: 92%
